# From ChEMBL document CHEMBL5352429, “Designed symmetrical β-hairpin peptides for treating multidrug-resistant salmonella typhimurium infections” (Eur J Med Chem, 2022)
# Activity calls are given as the source filed them. The rule behind the calls is not given here. Peptide text beside a SMILES is read from it.
# Key:
# [1] = test system: Salmonella enterica subsp. enterica serovar Paratyphi B; test: Antibacterial activity against Salmonella paratyphi B CICC 21495 incubated overnight by standard microtiter dilution method; type: functional
# Salmonella typhimurium [2] = test: Antibacterial activity against Salmonella typhimurium DT104 assessed as reduction in TNF-alpha mRNA level in ileum at 20 mg/kg, ip administered for 3 days and measured on day 7 by RT-PCR analysis; type: functional, organism-based; conditions: Salmonella enterica subsp. enterica serovar Typhimurium, time 7.0 day
# RAW264.7 [3] = test: Anti-inflammatory activity in mouse RAW264.7 cells assessed as inhibition of LPS-induced IL-8 mRNA expression at 15 ug/ml preincubated with compound for 30 mins followed by LPS stimulation and measured after 4 hrs by RT-PCR analysis; type: functional, cell-based; conditions: dose 15.0 µg/ml, time 4.5 hrs
# [4] = Antibacterial activity against Salmonella paratyphi C CICC 21512 incubated overnight by standard microtiter dilution method; type: functional, Salmonella enterica subsp. enterica serovar Paratyphi C; conditions: Salmonella enterica
# Salmonella typhimurium [5] = test: Antibacterial activity against Salmonella typhimurium DT104 infected in mouse RAW264.7 cells assessed as log reduction in bacterial colony count at 1 times of MIC measured after 90 mins by MH agar based serial dilution method; type: functional, Salmonella enterica subsp. enterica serovar Typhimurium; conditions: 1.5 h
# Cell membrane [6] = test: Induction of membrane damage in Salmonella typhimurium DT104 assessed as substantial damage to bacterial envelope at 1 times of MIC incubated for 60 mins by transmission electron microscopic analysis; type: subcellular; conditions: Salmonella enterica subsp. enterica serovar Typhimurium
# Salmonella typhimurium [7] = test: Antibacterial activity against Salmonella typhimurium DT104 assessed as reduction in TNF-alpha production in serum at 20 mg/kg, ip administered for 3 days and measured on day 7; type: functional, organism-based; conditions: Salmonella enterica subsp. enterica serovar Typhimurium, time 7.0 day
# RAW264.7 [8] = test: Anti-inflammatory activity in mouse RAW264.7 cells assessed as inhibition of LPS-induced IL-10 mRNA expression at 15 ug/ml preincubated with compound for 30 mins followed by LPS stimulation and measured after 4 hrs by RT-PCR analysis; type: functional, cell-based; conditions: dose 15.0 µg/ml, time 4.5 hrs
# Cell membrane [9] = test: Induction of membrane damage in Salmonella typhimurium DT104 assessed as cytoplasmic outflow at 1 times of MIC incubated for 15 mins by confocal laser scanning microscopic analysis; type: subcellular; conditions: Salmonella enterica subsp. enterica serovar Typhimurium
# Lipopolysaccharide (LPS) = test: Displacement of BODIPY-TR-cadaverine from Salmonella typhimurium LPS assessed as increase in fluorescence intensity by fluorescence spectrophotometric analysis; conditions: Salmonella enterica subsp. enterica serovar Typhimurium; dose 0.25-8 µg/ml
# Salmonella typhimurium [10] = test: Antibacterial activity against Salmonella typhimurium DT104 in the presence of MgCl2 by MH broth based assay; type: functional, Salmonella enterica subsp. enterica serovar Typhimurium; conditions: Salmonella enterica
# Salmonella typhimurium [11] = test: Antibacterial activity against Salmonella typhimurium DT104 assessed as increase in occludin mRNA level in colon at 20 mg/kg, ip administered for 3 days and measured on day 7 by RT-PCR analysis; type: functional, organism-based; conditions: Salmonella enterica subsp. enterica serovar Typhimurium, time 7.0 day
# [12] = Antibacterial activity against Salmonella blockley CICC 21489 incubated overnight by standard microtiter dilution method; type: functional, Salmonella enterica subsp. enterica serovar Blockley; conditions: Salmonella enterica
# Salmonella typhimurium [13] = test: Antibacterial activity against multi-drug resistant Salmonella typhimurium DT104 infected in ICR mouse model assessed as reduction in bacterial population in fecus at 2 mg/kg, ip administered for 3 days; type: functional, organism-based; conditions: Salmonella enterica subsp. enterica serovar Typhimurium, time 3.0 day
# Enterococcus faecalis = test: Antibacterial activity against Enterococcus faecalis ATCC 29212 incubated overnight by standard microtiter dilution method; type: functional
# Salmonella typhimurium [14] = test: Antibacterial activity against Salmonella typhimurium DT104 assessed as reduction in IL-4 mRNA level in ileum at 20 mg/kg, ip administered for 3 days and measured on day 7 by RT-PCR analysis; type: functional, organism-based; conditions: Salmonella enterica subsp. enterica serovar Typhimurium, time 7.0 day
# Staphylococcus aureus [15] = test: Antibacterial activity against methicillin-resistant Staphylococcus aureus ATCC 43300 incubated overnight by standard microtiter dilution method; type: functional
# Staphylococcus aureus [16] = test: Antibacterial activity against Staphylococcus aureus ATCC 29213 incubated overnight by standard microtiter dilution method; type: functional
# Salmonella typhimurium [17] = test: Antibacterial activity against Salmonella typhimurium DT104 in the presence of CaCl2 by MH broth based assay; type: functional, Salmonella enterica subsp. enterica serovar Typhimurium; conditions: Salmonella enterica
# Salmonella typhimurium [18] = test: Antibacterial activity against Salmonella typhimurium DT104 assessed as increase in claudin mRNA level in colon at 20 mg/kg, ip administered for 3 days and measured on day 7 by RT-PCR analysis; type: functional, organism-based; conditions: Salmonella enterica subsp. enterica serovar Typhimurium, time 7.0 day
# Cell membrane [19] = test: Induction of membrane damage in Salmonella typhimurium DT104 assessed as cytoplasmic outflow at 1 times of MIC incubated for 60 mins by transmission electron microscopic analysis; type: subcellular; conditions: Salmonella enterica subsp. enterica serovar Typhimurium
# Salmonella typhimurium [20] = test: Antibacterial activity against Salmonella typhimurium DT104 infected in mouse RAW264.7 cells assessed as reduction in bacterial cells at 1 times of MIC measured for 180 mins by MH agar based serial dilution method; type: functional, organism-based; conditions: Salmonella enterica subsp. enterica serovar Typhimurium
# Salmonella typhimurium [21] = test: Antibacterial activity against Salmonella typhimurium DT104 infected in ICR mouse model assessed as reduction in bacterial translocation to spleen at 2 mg/kg, ip administered for 3 days and measured on day 7 by serial dilution method; type: functional, organism-based; conditions: Salmonella enterica subsp. enterica serovar Typhimurium, time 7.0 day
# RAW264.7 [22] = test: Inhibition of LPS-stimulated TNF-alpha production in mouse RAW264.7 cells at 1 to 128 ug/ml incubated for 24 hrs by ELISA analysis; type: functional, cell-based; conditions: dose 1-128 µg/ml
# Salmonella typhimurium [23] = test: Antibacterial activity against Salmonella typhimurium CICC 21913 incubated overnight by standard microtiter dilution method; type: functional, Salmonella enterica subsp. enterica serovar Typhimurium; conditions: Salmonella enterica
# Salmonella typhimurium [24] = test: Antibacterial activity against Salmonella typhimurium DT104 ATCC 700408 incubated overnight by standard microtiter dilution method; type: functional, Salmonella enterica subsp. enterica serovar Typhimurium; conditions: Salmonella enterica
# Salmonella typhimurium [25] = test: Antibacterial activity against Salmonella typhimurium DT104 infected in ICR mouse model assessed as increase in ZO-1 expression in villous at 20 mg/kg, ip administered for 3 days and measured on day 7 […] by immunohistochemistry analysis; type: functional, organism-based; conditions: Salmonella enterica subsp. enterica serovar Typhimurium, time 7.0 day
# Salmonella typhimurium [26] = test: Antibacterial activity against multi-drug resistant Salmonella typhimurium DT104 assessed as inhibition of bacterial growth measured upto 120 mins by MH agar based serial dilution method; type: functional, organism-based; conditions: Salmonella enterica subsp. enterica serovar Typhimurium
# Cell membrane [27] = test: Induction of membrane damage in Salmonella typhimurium DT104 assessed as membrane devastation at 1 times of MIC incubated for 60 mins by atomic force microscopic analysis; type: subcellular; conditions: Salmonella enterica subsp. enterica serovar Typhimurium
# RAW264.7 [28] = test: Anti-inflammatory activity in mouse RAW264.7 cells assessed as inhibition of LPS-induced IL-4 mRNA expression at 15 ug/ml preincubated with compound for 30 mins followed by LPS stimulation and measured after 4 hrs by RT-PCR analysis; type: functional, cell-based; conditions: dose 15.0 µg/ml, time 4.5 hrs
# Salmonella typhimurium [29] = test: Antibacterial activity against Salmonella typhimurium CICC 21483 incubated overnight by standard microtiter dilution method; type: functional, Salmonella enterica subsp. enterica serovar Typhimurium; conditions: Salmonella enterica
# RAW264.7 [30] = test: Inhibition of LPS-stimulated NO production in mouse RAW264.7 cells incubated for 24 hrs by Griess reagent based analysis; type: functional, cell-based; conditions: dose 1-128 µg/ml
# [31] = Antibacterial activity against Salmonella wandsworth CICC 21504 incubated overnight by standard microtiter dilution method; type: functional, Salmonella enterica subsp. enterica serovar Wandsworth; conditions: Salmonella enterica
# Salmonella typhimurium [32] = test: Antibacterial activity against Salmonella typhimurium DT104 in the presence 50% inactivated mouse serum by MH broth based assay; type: functional, Salmonella enterica subsp. enterica serovar Typhimurium; conditions: Salmonella enterica
# Erythrocyte = test: Hemolytic activity in human Red blood cells assessed as hemolysis incubated for 1 hrs by absorbance based microplate reader analysis; type: toxicity, cell-based
# RAW264.7 [33] = test: Anti-inflammatory activity in mouse RAW264.7 cells assessed as inhibition of LPS-induced iNOS mRNA expression at 15 ug/ml preincubated with compound for 30 mins followed by LPS stimulation and measured after 4 hrs by RT-PCR analysis; type: functional, cell-based; conditions: dose 15.0 µg/ml, time 4.5 hrs
smiles,measurement,setting,value
C[C@@H](O)[C@H](NC(=O)[C@H](CS)NC(=O)[C@H](CCCCN)NC(=O)[C@H](Cc1c[nH]c2ccccc12)NC(=O)[C@H](CCCCN)NC(=O)[C@@H](N)Cc1c[nH]c2ccccc12)C(=O)N[C@@H](CCCCN)C(=O)N[C@@H](CO)C(=O)NCC(=O)N[C@@H](CS)C(=O)N[C@@H](CCCCN)C(=O)N[C@@H](Cc1c[nH]c2ccccc12)C(=O)N[C@@H](CCCCN)C(=O)N[C@@H](Cc1c[nH]c2ccccc12)C(N)=O (H-WKWKCTKSGCKWKW-NH2),MIC,[1],1 µg/mL
same,Activity,Salmonella typhimurium [2],Active
same,inhibition,RAW264.7 [3],Active
same,MIC,[4],4 µg/mL
same,log(activity),Salmonella typhimurium [5],3
same,Activity,Cell membrane [6],Active
same,Activity,Salmonella typhimurium [7],Active
same,inhibition,RAW264.7 [8],Active
same,Activity,Cell membrane [9],Active
same,Activity,Lipopolysaccharide (LPS),Dose-Dependent Effect
same,MIC,Salmonella typhimurium [10],4 µg/mL
same,Activity,Salmonella typhimurium [11],Active
same,MIC,[12],8 µg/mL
same,Activity,Salmonella typhimurium [13],Active
same,MIC,Enterococcus faecalis,2 µg/mL
same,Activity,Salmonella typhimurium [14],Active
same,MIC,Staphylococcus aureus [15],8 µg/mL
same,MIC,Staphylococcus aureus [16],4 µg/mL
same,MIC,Salmonella typhimurium [17],8 µg/mL
same,Activity,Salmonella typhimurium [18],Active
same,Activity,Cell membrane [19],Active
same,Activity,Salmonella typhimurium [20],Active
same,Activity,Salmonella typhimurium [21],Active
same,inhibition,RAW264.7 [22],Active
same,MIC,Salmonella typhimurium [23],8 µg/mL
same,MIC,Salmonella typhimurium [24],4 µg/mL
same,Activity,Salmonella typhimurium [25],Active
same,Activity,Salmonella typhimurium [26],Dose-Dependent Effect
same,Activity,Cell membrane [27],Active
same,inhibition,RAW264.7 [28],Active
same,MIC,Salmonella typhimurium [29],4 µg/mL
same,inhibition,RAW264.7 [30],Dose-Dependent Effect
same,MIC,[31],8 µg/mL
same,MIC,Salmonella typhimurium [32],32 µg/mL
same,MHC,Erythrocyte,> 128 µg/mL
same,inhibition,RAW264.7 [33],Active
